The results in this text go back to patent publication US9260534B2, “Site-directed PEG-modified exendin-4 analogs and uses thereof” (priority 2010, dated 2016).

One may read the EC50 as the concentration needed to bring the measured effect to its halfway point. Read a low EC50 as higher potency in that assay.

The test system of this test is GLP-1 receptor. Briefly: Evaluation of agonistic activity on GLP-1 receptor (CRE-luciferase reporter in HEK293 cells). Type of test: cell-based. Conditions: HEK293 cells stably expressing CRE-luciferase reporter system; cellular level. The text has this:
GLP-1 receptor is a Gs-coupled GPCR. CRE-luciferase reporter system was stably expressed in human embryonic kidney epithelial cell line HEK293 used for evaluation. Therefore, once the receptor was activated, the enhancement of intracellular concentration of the second messenger cAMP through Gs signal pathway would initiate the expression of the luciferase gene in the reporter system. The ability of the test compounds to stimulate and activate GLP-1 receptor was reflected by the detected expression level of the luciferase reporter gene.

As for “[Cys^21(mPEG5000-MAL)]Exendin-4 [Compound 1]”, the concentration for a half-maximal effect (EC50) was 22.5 nM.
